According to US9840513B2 (AbbVie S.à.r.l., priority 2015, dated 2017):
pEC50: −log10 of the molar value.

Biological target: T1, F508delCFTR cell surface expression in CFBE41o-F508delCFTR-HRP cells (Homo sapiens, UniProt P13569, DEL508-508)
T1 construct: fused on or other part: Horseradish peroxidase (HRP) reporter inserted in the fourth exofacial (extracellular) loop of CFTR; expression is doxycycline-inducible
Assay: Cell Surface Expression-Horse Radish Peroxidase (CSE-HRP) Assay
Assay type: cell-based
Conditions: for pEC50: CFBE41o-F508delCFTR-HRP cells, 18-24 hours at 33° C., 8-point curve, highest concentration 20 μM; for Maximum % activity (%): maximum at any tested concentration, normalized to on-plate positive control (3 μM)
Procedure, shortened: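 CFBE41o- cells with HRP-tagged F508delCFTR, expression induced by 0.5 μg/mL doxycycline for 72 h at 37 °C, then compound for 18-24 h at 33 °C (8-point, 3-fold, top 20 μM). Surface HRP measured by luminol luminescence; % activity normalised to 3 μM positive-control corrector; EC50 from variable-slope sigmoidal fit, three replicate plates.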

T1 sequence (P13569 with tags, fused parts or gaps DEL508-508 limits assumed): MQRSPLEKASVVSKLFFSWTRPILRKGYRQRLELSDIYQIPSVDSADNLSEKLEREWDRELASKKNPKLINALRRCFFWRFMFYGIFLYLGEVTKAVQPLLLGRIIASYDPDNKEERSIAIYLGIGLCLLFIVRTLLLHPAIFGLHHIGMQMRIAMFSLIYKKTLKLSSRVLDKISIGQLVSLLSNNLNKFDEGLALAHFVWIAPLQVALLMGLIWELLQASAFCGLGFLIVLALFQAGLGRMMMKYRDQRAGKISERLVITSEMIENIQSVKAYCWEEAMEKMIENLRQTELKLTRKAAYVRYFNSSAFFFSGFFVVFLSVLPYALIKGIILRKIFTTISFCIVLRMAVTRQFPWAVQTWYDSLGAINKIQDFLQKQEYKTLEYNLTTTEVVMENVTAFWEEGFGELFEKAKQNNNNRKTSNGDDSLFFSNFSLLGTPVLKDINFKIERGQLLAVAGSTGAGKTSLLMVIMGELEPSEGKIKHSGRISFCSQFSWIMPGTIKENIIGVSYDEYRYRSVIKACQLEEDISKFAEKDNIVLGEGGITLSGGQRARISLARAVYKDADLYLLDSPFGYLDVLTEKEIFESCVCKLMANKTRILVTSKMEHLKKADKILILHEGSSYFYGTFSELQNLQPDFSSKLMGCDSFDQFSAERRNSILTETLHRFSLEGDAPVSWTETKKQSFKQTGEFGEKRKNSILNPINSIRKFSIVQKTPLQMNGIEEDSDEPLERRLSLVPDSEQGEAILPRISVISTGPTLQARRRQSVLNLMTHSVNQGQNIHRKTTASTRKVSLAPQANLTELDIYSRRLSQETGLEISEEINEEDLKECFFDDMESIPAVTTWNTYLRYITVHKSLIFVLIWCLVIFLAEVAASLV
T1 sequence (P13569 919-1480 limits assumed, stated change not applied): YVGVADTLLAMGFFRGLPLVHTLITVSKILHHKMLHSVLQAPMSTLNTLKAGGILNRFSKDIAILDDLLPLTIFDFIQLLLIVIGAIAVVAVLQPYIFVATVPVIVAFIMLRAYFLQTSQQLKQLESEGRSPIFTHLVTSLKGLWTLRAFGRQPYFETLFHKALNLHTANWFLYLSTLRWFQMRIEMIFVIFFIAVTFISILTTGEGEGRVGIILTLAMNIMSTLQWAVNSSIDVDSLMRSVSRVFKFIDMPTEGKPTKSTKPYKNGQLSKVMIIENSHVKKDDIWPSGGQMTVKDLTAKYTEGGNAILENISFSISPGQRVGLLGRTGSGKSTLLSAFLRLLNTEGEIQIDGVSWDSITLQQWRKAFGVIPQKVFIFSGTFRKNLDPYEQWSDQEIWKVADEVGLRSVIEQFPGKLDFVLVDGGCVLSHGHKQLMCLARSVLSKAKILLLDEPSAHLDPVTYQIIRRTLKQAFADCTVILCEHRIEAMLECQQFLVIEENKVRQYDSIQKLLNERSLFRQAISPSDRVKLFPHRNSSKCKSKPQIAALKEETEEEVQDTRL

pEC50 | Maximum % activity (%) | Structure (SMILES)
6.18 | 125% | C[C@]1(C(=O)Nc2cc3cc(C4(COCc5ccccc5)CC4)n(C[C@@H](O)CO)c3cc2F)COc2cc3c(cc21)OC(F)(F)O3 [Example 203, (7R)—N-(2-{1-[(benzyloxy)methyl]cyclopropyl}-1-[(2R)-2,3-dihydroxypropyl]-6-fluoro-1H-indol-5-yl)-2,2-difluoro-7-methyl-6,7-dihydro-2H-furo[2,3-f][1,3]benzodioxole-7-carboxamide]
6.51 | 134% | CC(C)(COCc1ccccc1)c1cc2cc(NC(=O)[C@@]3(C)COc4cc5c(cc43)OC(F)(F)O5)c(F)cc2[nH]1 [Example 204, (7R)—N-{2-[1-(benzyloxy)-2-methylpropan-2-yl]-6-fluoro-1H-indol-5-yl}-2,2-difluoro-7-methyl-6,7-dihydro-2H-furo[2,3-f][1,3]benzodioxole-7-carboxamide]
< 4.70 | 18% | CC(C)(COCc1ccccc1)c1cc2cc(NC(=O)[C@]3(C)COc4cc5c(cc43)OC(F)(F)O5)c(F)cc2n1C[C@@H](O)COCc1ccccc1 [Example 205, (7S)—N-{1-[(2R)-3-(benzyloxy)-2-hydroxypropyl]-2-[1-(benzyloxy)-2-methylpropan-2-yl]-6-fluoro-1H-indol-5-yl}-2,2-difluoro-7-methyl-6,7-dihydro-2H-furo[2,3-f][1,3]benzodioxole-7-carboxamide]
6.46 | 69% | CC1(C)OC[C@@H](Cn2c3c(c4cc(NC(=O)[C@@]5(C)COc6cc7c(cc65)OC(F)(F)O7)c(F)cc42)C(C)(C)OCC3(C)C)O1 [Example 207, (7R)—N-(5-{[(4R)-2,2-dimethyl-1,3-dioxolan-4-yl]methyl}-7-fluoro-1,1,4,4-tetramethyl-1,3,4,5-tetrahydropyrano[4,3-b]indol-8-yl)-2,2-difluoro-7-methyl-6,7-dihydro-2H-furo[2,3-f][1,3]benzodioxole-7-carboxamide]
8.00 | 103% | COc1ccc2c(c1)O[C@@H](c1ccc(C(=O)Nc3ccccc3O)cn1)C[C@H]2NC(=O)[C@@]1(C)COc2cc3c(cc21)OC(F)(F)O3 [Example 208, 6-[(2R,4R)-4-{[(7R)-2,2-difluoro-7-methyl-6,7-dihydro-2H-furo[2,3-f][1,3]benzodioxole-7-carbonyl]amino}-7-methoxy-3,4-dihydro-2H-1-benzopyran-2-yl]-N-(2-hydroxyphenyl)pyridine-3-carboxamide]
7.52 | 122% | CCCN(CCO)C(=O)c1ccc([C@H]2C[C@@H](NC(=O)[C@@]3(C)COc4cc5c(cc43)OC(F)(F)O5)c3ccc(OC)cc3O2)nc1 [Example 209, 6-[(2R,4R)-4-{[(7R)-2,2-difluoro-7-methyl-6,7-dihydro-2H-furo[2,3-f][1,3]benzodioxole-7-carbonyl]amino}-7-methoxy-3,4-dihydro-2H-1-benzopyran-2-yl]-N-(2-hydroxyethyl)-N-propylpyridine-3-carboxamide]
7.52 | 147% | COc1ccc2c(c1)O[C@@H](c1ccc(C(=O)N(CCO)Cc3ccccc3)cn1)C[C@H]2NC(=O)[C@@]1(C)COc2cc3c(cc21)OC(F)(F)O3 [Example 210, N-benzyl-6-[(2R,4R)-4-{[(7R)-2,2-difluoro-7-methyl-6,7-dihydro-2H-furo[2,3-f][1,3]benzodioxole-7-carbonyl]amino}-7-methoxy-3,4-dihydro-2H-1-benzopyran-2-yl]-N-(2-hydroxyethyl)pyridine-3-carboxamide]
7.52 | 124% | COc1ccc2c(c1)O[C@@H](c1ccc(C(=O)N(C)CC(O)c3ccccc3)cn1)C[C@H]2NC(=O)[C@@]1(C)COc2cc3c(cc21)OC(F)(F)O3 (stereo partly drawn) [Example 211, 6-[(2R,4R)-4-{[(7R)-2,2-difluoro-7-methyl-6,7-dihydro-2H-furo[2,3-f][1,3]benzodioxole-7-carbonyl]amino}-7-methoxy-3,4-dihydro-2H-1-benzopyran-2-yl]-N-(2-hydroxy-2-phenylethyl)-N-methylpyridine-3-carboxamide]
7.52 | 119% | COc1ccc2c(c1)O[C@@H](c1ccc(C(=O)N3CCC(O)CC3)cn1)C[C@H]2NC(=O)[C@@]1(C)COc2cc3c(cc21)OC(F)(F)O3 [Example 212, (7R)-2,2-difluoro-N-{(2R,4R)-2-[5-(4-hydroxypiperidine-1-carbonyl)pyridin-2-yl]-7-methoxy-3,4-dihydro-2H-1-benzopyran-4-yl}-7-methyl-6,7-dihydro-2H-furo[2,3-f][1,3]benzodioxole-7-carboxamide]
7.52 | 113% | COc1ccc2c(c1)O[C@@H](c1ccc(C(=O)NC(C)(C)CO)cn1)C[C@H]2NC(=O)[C@@]1(C)COc2cc3c(cc21)OC(F)(F)O3 [Example 215, 6-[(2R,4R)-4-{[(7R)-2,2-difluoro-7-methyl-6,7-dihydro-2H-furo[2,3-f][1,3]benzodioxole-7-carbonyl]amino}-7-methoxy-3,4-dihydro-2H-1-benzopyran-2-yl]-N-(1-hydroxy-2-methylpropan-2-yl)pyridine-3-carboxamide]
7.52 | 130% | COc1ccc2c(c1)O[C@@H](c1ccc(C(=O)NC(CO)c3ccccc3)cn1)C[C@H]2NC(=O)[C@@]1(C)COc2cc3c(cc21)OC(F)(F)O3 (stereo partly drawn) [Example 216, 6-[(2R,4R)-4-{[(7R)-2,2-difluoro-7-methyl-6,7-dihydro-2H-furo[2,3-f][1,3]benzodioxole-7-carbonyl]amino}-7-methoxy-3,4-dihydro-2H-1-benzopyran-2-yl]-N-(2-hydroxy-1-phenylethyl)pyridine-3-carboxamide]
6.92 | 104% | COc1ccc2c(c1)O[C@@H](c1ccc(C(=O)NC3CCS(=O)(=O)CC3)cn1)C[C@H]2NC(=O)[C@@]1(C)COc2cc3c(cc21)OC(F)(F)O3 [Example 217, 6-[(2R,4R)-4-{[(7R)-2,2-difluoro-7-methyl-6,7-dihydro-2H-furo[2,3-f][1,3]benzodioxole-7-carbonyl]amino}-7-methoxy-3,4-dihydro-2H-1-benzopyran-2-yl]-N-(1,1-dioxo-1lambda^6-thian-4-yl)pyridine-3-carboxamide]
8.00 | 116% | COc1ccc2c(c1)O[C@@H](c1ccc(C(=O)N3CCC(F)(F)CC3)cn1)C[C@H]2NC(=O)[C@@]1(C)COc2cc3c(cc21)OC(F)(F)O3 [Example 218, (7R)—N-{(2R,4R)-2-[5-(4,4-difluoropiperidine-1-carbonyl)pyridin-2-yl]-7-methoxy-3,4-dihydro-2H-1-benzopyran-4-yl}-2,2-difluoro-7-methyl-6,7-dihydro-2H-furo[2,3-f][1,3]benzodioxole-7-carboxamide]
7.52 | 105% | COc1ccc2c(c1)O[C@@H](c1ccc(C(=O)N3CCCOCC3)cn1)C[C@H]2NC(=O)[C@@]1(C)COc2cc3c(cc21)OC(F)(F)O3 [Example 219, (7R)-2,2-difluoro-N-{(2R,4R)-7-methoxy-2-[5-(1,4-oxazepane-4-carbonyl)pyridin-2-yl]-3,4-dihydro-2H-1-benzopyran-4-yl}-7-methyl-6,7-dihydro-2H-furo[2,3-f][1,3]benzodioxole-7-carboxamide]
7.10 | 125% | COc1ccc2c(c1)O[C@@H](c1ccc(C(=O)NC3c4ccccc4CC3O)cn1)C[C@H]2NC(=O)[C@@]1(C)COc2cc3c(cc21)OC(F)(F)O3 (stereo partly drawn) [Example 221, 6-[(2R,4R)-4-{[(7R)-2,2-difluoro-7-methyl-6,7-dihydro-2H-furo[2,3-f][1,3]benzodioxole-7-carbonyl]amino}-7-methoxy-3,4-dihydro-2H-1-benzopyran-2-yl]-N-(2-hydroxy-2,3-dihydro-1H-inden-1-yl)pyridine-3-carboxamide]
7.70 | 116% | COc1ccc2c(c1)O[C@@H](c1ccc(C(=O)NC(CO)c3ccccc3OC)cn1)C[C@H]2NC(=O)[C@@]1(C)COc2cc3c(cc21)OC(F)(F)O3 (stereo partly drawn) [Example 222, 6-[(2R,4R)-4-{[(7R)-2,2-difluoro-7-methyl-6,7-dihydro-2H-furo[2,3-f][1,3]benzodioxole-7-carbonyl]amino}-7-methoxy-3,4-dihydro-2H-1-benzopyran-2-yl]-N-[2-hydroxy-1-(2-methoxyphenyl)ethyl]pyridine-3-carboxamide]
7.15 | 157% | COc1ccc2c(c1)O[C@@H](c1ccc(C(=O)N3CCC(F)(F)CC3)cc1)C[C@H]2NC(=O)[C@@]1(C)COc2cc3c(cc21)OC(F)(F)O3 [Example 223, (7R)—N-{(2R,4R)-2-[4-(4,4-difluoropiperidine-1-carbonyl)phenyl]-7-methoxy-3,4-dihydro-2H-1-benzopyran-4-yl}-2,2-difluoro-7-methyl-6,7-dihydro-2H-furo[2,3-f][1,3]benzodioxole-7-carboxamide]
6.51 | 199% | C[C@]1(C(=O)N[C@@H]2C[C@H](C3CCN(C(=O)OCc4ccccc4)CC3)Oc3cc(OC(F)(F)F)ccc32)COc2cc3c(cc21)OC(F)(F)O3 [Example 224, benzyl 4-[(2R,4R)-4-{[(7R)-2,2-difluoro-7-methyl-6,7-dihydro-2H-furo[2,3-f][1,3]benzodioxole-7-carbonyl]amino}-7-(trifluoromethoxy)-3,4-dihydro-2H-1-benzopyran-2-yl]piperidine-1-carboxylate]
